Each block holds one compound with its values, some of them ahead of it. Calls of active or inactive are those of the source. The rule behind the calls is not given here.
How the values were obtained:
Rattus norvegicus [1] = assay: Inhibition of plasma DPP-4 activity in Wistar/ST rat at 10 mg/kg, po pretreated 30 mins before glucose challenge measured within 30 mins; format: functional
[2] = Cmax in Sprague-Dawley rat at 3 mg/kg, po; format: ADME, organism-based; set-up: dose 3 mg/kg, route oral; conditions: in vivo
[3] = Total clearance in Beagle dog at 0.2 mg/kg, iv; format: ADME, organism-based, Canis lupus familiaris; set-up: dose 0.2 mg/kg, route intravenous; conditions: in vivo
[4] = Tmax in Sprague-Dawley rat at 3 mg/kg, po; format: ADME, organism-based; set-up: dose 3 mg/kg, route oral; conditions: in vivo
[5] = Plasma protein binding in dog at 20 ng/ml after 0.5 hrs by LC-MS/MS analysis; format: ADME, cell-free, Canis lupus familiaris; conditions: read-out: PPB (converted)
[6] = Terminal half life in Beagle dog at 0.5 mg/kg, po; format: ADME, organism-based, Canis lupus familiaris; set-up: dose 0.5 mg/kg, route oral; conditions: in vivo, read-out: beta t1/2 (converted)
[7] = Drug level in Sprague-Dawley rat plasma at 3 mg/kg at Tmax; format: ADME, organism-based; set-up: dose 3 mg/kg; conditions: read-out: Drug uptake
[8] = Terminal half life in Sprague-Dawley rat at 10 mg/kg, po; format: ADME, organism-based; set-up: dose 10 mg/kg, route oral; conditions: in vivo, read-out: beta t1/2 (converted)
Rattus norvegicus [9] = assay: Antidiabetic activity in Wistar/ST rat plasma assessed as reduction in glucose AUC (0 to 60 mins) at 10 mg/kg, po pretreated 30 mins before glucose challenge measured for 2 hrs by oral glucose tolerance test; format: functional, organism-based; set-up: dose 10 mg/kg
[10] = Cmax in Sprague-Dawley rat at 10 mg/kg, po; format: ADME, organism-based; set-up: dose 10 mg/kg, route oral; conditions: in vivo
Canis familiaris [11] = assay: Volume of distribution at steady state in Beagle dog at 0.2 mg/kg, iv; format: ADME, organism-based, Canis lupus familiaris; set-up: dose 0.2 mg/kg, route intravenous; conditions: in vivo
[12] = Plasma protein binding in dog at 2000 ng/ml after 0.5 hrs by LC-MS/MS analysis; format: ADME, cell-free, Canis lupus familiaris; conditions: read-out: PPB (converted)
Rattus norvegicus [13] = assay: AUC in Sprague-Dawley rat at 10 mg/kg, po; format: ADME, organism-based, Plasma; set-up: dose 10 mg/kg, route oral; conditions: in vivo
Canis familiaris [14] = assay: AUC in Beagle dog at 0.5 mg/kg, po; format: ADME, organism-based, Canis lupus familiaris, Plasma; set-up: dose 0.5 mg/kg, route oral; conditions: in vivo
Rattus norvegicus [15] = assay: Inhibition of plasma DPP-4 activity in Wistar/ST rat at 3 mg/kg, po pretreated 30 mins before glucose challenge measured for 2 hrs during oral glucose tolerance test; format: functional
[16] = Plasma protein binding in rat at 2000 ng/ml after 0.5 hrs by LC-MS/MS analysis; format: ADME, cell-free; conditions: read-out: PPB (converted)
Rattus norvegicus [17] = assay: Volume of distribution at steady state in Sprague-Dawley rat at 3 mg/kg, iv; format: ADME, organism-based; set-up: dose 3 mg/kg, route intravenous; conditions: in vivo
[18] = Plasma protein binding in human at 2000 ng/ml after 0.5 hrs by LC-MS/MS analysis; format: ADME, cell-free; conditions: read-out: PPB (converted)
[19] = Tmax in Beagle dog at 0.5 mg/kg, po; format: ADME, organism-based, Canis lupus familiaris; set-up: dose 0.5 mg/kg, route oral; conditions: in vivo
[20] = Cmax in Beagle dog at 0.5 mg/kg, po; format: ADME, organism-based, Canis lupus familiaris; set-up: dose 0.5 mg/kg, route oral; conditions: in vivo
[21] = Oral bioavailability in Sprague-Dawley rat at 10 mg/kg; format: ADME, organism-based; conditions: in vivo
[22] = Total clearance in Sprague-Dawley rat at 3 mg/kg, iv; format: ADME, organism-based; set-up: dose 3 mg/kg, route intravenous; conditions: in vivo
[23] = Plasma protein binding in rat at 20 ng/ml after 0.5 hrs by LC-MS/MS analysis; format: ADME, cell-free; conditions: read-out: PPB (converted)
[24] = Tmax in Sprague-Dawley rat at 10 mg/kg, po; format: ADME, organism-based; set-up: dose 10 mg/kg, route oral; conditions: in vivo
Rattus norvegicus [25] = assay: Inhibition of plasma DPP-4 activity in orally dosed Wistar/ST rat pretreated 30 mins before glucose challenge measured for 2 hrs during oral glucose tolerance test; format: functional, organism-based
[26] = Plasma protein binding in human at 20 ng/ml after 0.5 hrs by LC-MS/MS analysis; format: ADME, cell-free; conditions: read-out: PPB (converted)
[27] = Oral bioavailability in Beagle dog at 0.5 mg/kg; format: ADME, organism-based, Canis lupus familiaris; conditions: in vivo
Dipeptidyl peptidase 8 = Dipeptidyl peptidase 8 (Homo sapiens, UniProt Q6V1X1); assay: Inhibition of human recombinant DPP-8 expressed in Sf9 cells using H-Gly-Pro-AMC as substrate preincubated for 30 mins before substrate addition measured after 20 mins by fluorescence assay
[28] = Oral bioavailability in Sprague-Dawley rat at 5 mg/kg; format: ADME, organism-based; conditions: in vivo

Chain of Dipeptidyl peptidase 8 (Q6V1X1 whole entry): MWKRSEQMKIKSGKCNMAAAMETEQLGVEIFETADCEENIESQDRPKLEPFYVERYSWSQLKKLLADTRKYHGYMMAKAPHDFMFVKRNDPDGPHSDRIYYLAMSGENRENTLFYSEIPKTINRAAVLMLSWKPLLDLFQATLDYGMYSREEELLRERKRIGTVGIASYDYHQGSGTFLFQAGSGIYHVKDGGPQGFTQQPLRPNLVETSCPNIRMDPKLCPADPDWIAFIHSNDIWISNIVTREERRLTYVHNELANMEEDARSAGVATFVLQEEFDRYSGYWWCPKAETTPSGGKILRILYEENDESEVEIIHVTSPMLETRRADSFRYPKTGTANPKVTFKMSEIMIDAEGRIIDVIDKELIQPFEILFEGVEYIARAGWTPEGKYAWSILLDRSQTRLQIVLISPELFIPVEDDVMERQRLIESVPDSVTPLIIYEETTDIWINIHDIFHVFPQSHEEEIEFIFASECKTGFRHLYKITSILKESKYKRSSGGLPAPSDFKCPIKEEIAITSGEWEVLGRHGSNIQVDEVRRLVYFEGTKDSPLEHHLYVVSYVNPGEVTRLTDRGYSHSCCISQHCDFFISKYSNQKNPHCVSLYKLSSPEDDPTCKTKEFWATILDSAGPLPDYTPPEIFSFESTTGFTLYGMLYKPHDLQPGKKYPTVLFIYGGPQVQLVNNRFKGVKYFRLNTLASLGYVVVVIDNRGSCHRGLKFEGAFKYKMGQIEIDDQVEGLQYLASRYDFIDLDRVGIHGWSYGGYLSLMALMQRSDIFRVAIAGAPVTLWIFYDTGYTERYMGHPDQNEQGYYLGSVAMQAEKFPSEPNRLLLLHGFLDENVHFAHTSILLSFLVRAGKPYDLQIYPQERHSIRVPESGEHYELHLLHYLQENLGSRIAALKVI

- Cmax [2]: 68 ng/mL
- clearance [3]: 10.3 mL/min/kg
- Tmax [4]: 0.25 h
- fraction unbound at 0.5 h, 20 ng/ml [5]: 0.775
- half-life [6]: 1.3 h
- Cmax [7]: 54 nM
- half-life [8]: 1.9 h
- Cmax [10]: 747 ng/mL
- Vdss (Canis familiaris [11]): 0.75 L/kg
- fraction unbound at 0.5 h, 2000 ng/ml [12]: 0.801
- AUC (Rattus norvegicus [13]): 1110 ng·h/mL
- AUC (Canis familiaris [14]): 6390 ng·h/mL
- fraction unbound at 0.5 h, 2000 ng/ml [16]: 0.821
- Vdss (Rattus norvegicus [17]): 1.61 L/kg
- fraction unbound at 0.5 h, 2000 ng/ml [18]: 0.784
- Tmax [19]: 1 h
- Cmax [20]: 282 ng/mL
- bioavailability [21]: 27%
- clearance [22]: 37.2 mL/min/kg
- fraction unbound at 0.5 h, 20 ng/ml [23]: 0.779
- Tmax [24]: 0.25 h
- fraction unbound at 0.5 h, 20 ng/ml [26]: 0.811
- bioavailability [27]: 98%
Structure (SMILES): Cc1cc2ncc(C(=O)NCC(C)(C)NCC(=O)N3CCC[C@H]3C#N)c(C)n2n1.Cl
- inhibition in vivo at 10 mg/kg (Rattus norvegicus [1]): 90%
- Activity (Rattus norvegicus [9]): Active
- inhibition in vivo at 3 mg/kg (Rattus norvegicus [15]): 60%
- inhibition (Rattus norvegicus [25]): Dose-dependent effect

- IC50 (Dipeptidyl peptidase 8): > 100 µM
Structure (SMILES): Cc1cc2ncc(C(=O)NCC(C)(C)NCC(=O)N3CCC[C@H]3C#N)c(C(F)(F)F)n2n1

- bioavailability [28]: 4.1%
Structure (SMILES): Cc1cc2ncc(C(=O)NCC(C)(C)NCC(=O)N3CCC[C@H]3C#N)c(O)n2n1.Cl

- IC50 (Dipeptidyl peptidase 8): > 100 µM
Structure (SMILES): Cc1c(C(=O)NCC(C)(C)NCC(=O)N2CCC[C@H]2C#N)cnc2cc(C(C)(C)C)nn12
